# US7238376B2, “Black tea extract for prevention of disease” (Rutgers, The State University, priority 2000, dated 2007)
# Key:
# [1] = tested on: Caco-2 colorectal cancer cells, Hs578T breast cancer cells, and SV40-transformed W138 cells; settings: Chen et al. 1998; cited from earlier work
# [2] = tested on: normal counterparts; settings: Chen et al. 1998; cited from earlier work
# [3] = tested on: Cox-2 gene expression; assay: Cox-2 gene expression in Caco-2 cells (Northern blot / RT-PCR); assay type: cell-based, human; settings: TF-2 effects seen at 50 to 100 μM
# Procedure: All three polyphenols were tested, TF-1, TF-2 and TF-3.
# The effect of TF-2 on the time course of Cox-2 gene expression in Caco-2 cells was then examined. Cox-2 mRNA was detectable in quiescent Caco-2 cells, consistent with the finding that colon cancer cells have elevated Cox-2 gene expression. Fresh serum induced a 2- to 4-fold increase in Cox-2 expression in Caco-2 cells as early as 4 hours after stimulation; this was expected because of the known stimulatory effects of serum factors.
# Confluent cultures were serum-deprived for 48 hours. Cells were then treated with 10% fresh fetal bovine serum in the presence or absence of the black tea extracts (10, 20, 40, 50, 80 or 100 μM) to initiate the progression of the cell cycle. Cells were harvested at either 4 or 12 hours for total RNA isolation. Total RNA samples were resolved by electrophoresis on 1% agarose-formaldehyde gel (6 μg per lane) and transferred onto a nylon membrane. Northern blot analysis was performed.
# Confluent cultures were first serum-deprived for 48 hours and then stimulated with 10% fresh fetal bovine serum in the absence or presence of black tea extracts. Cells were harvested and total RNA was prepared using a kit (QIAGEN, Chatsworth, Calif.). Total RNA (1 μg) from each cell sample was reverse transcribed into cDNA by incubating with RNase H reverse transcriptase (Gibco BRL, Grand Island, N.Y.) using oligo(dT)12-18 as primer. For PCR amplification, gene specific primers were designed. The sequences of the sense and antisense primers for various genes were: […]
# PCR was performed under conditions that allowed the amounts of PCR products to be proportional to the amounts of RNA input. The housekeeping gene, glyceraldehyde-3-phosphate dehydrogenase (GAPDH) was used as an internal control. The PCR products were analyzed by electrophoresis on 1% agarose gel containing 0.5 μg/ml ethidium bromide.
# [4] = tested on: W138VA cells; assay: proliferation assay, crystal violet staining; assay type: cell-based, human; settings: 0, 1, 5, 10, 25 and 50 μM; 4 days
# Procedure: The effects of black tea polyphenols on proliferation of W138 and W138VA cells was examined. W138 diploid fibroblasts have a finite life span whereas the virally transformed W138VA cells are cancerous in nude mice. Both cell types were grown in 24 well plates in the presence of increasing doses of the theaflavin polyphenols, TF-1, TF-2 and TF-3 (0, 1, 5, 10, 25 and 50 μM). Viable cells were stained with crystal violet 4 days after plating. A decrease in staining intensity relative to the untreated control cells were indicative of growth inhibition by the polyphenol compound. Of the three theaflavin polyphenols tested, only TF-2 had significant effects on cells growth. […] The IC50 value for TF-2 and growth inhibition of W138VA cells was estimated to be 3 μM.
# Normal human W138 (cell strain AG06814E, PDL=16) and the SV40 virally transformed W138 cells (cell strain AG07217) were obtained from Coriell Institute for Medical Research (Camden, N.J.). Human colon cancer cells, Caco-2 (ATCC #HTB-37) and the matched normal colon cells CCD-33Co (ATCC #CRL-1539) were obtained from the American Type Culture Collection (Rockville, Md.). Cells were cultured in Dulbecco's medium containing 10% fetal bovine serum at 37° C., 5% CO2. […] Cell growth was measured by counting viable cells using the Trypan Blue exclusion method. […] Proliferation was monitored by crystal-violet staining. […]
# [5] = tested on: EGF and PDGF receptors; settings: compared with EGCG; Liang et al. 1999; cited from earlier work
# [6] = tested on: human A431 carcinoma cells; settings: compared with EGCG; Liang et al. 1999; cited from earlier work
# [7] = tested on: human lymphoid leukemia cells and human stomach tumor cells; settings: Hibasami et al. 1998; cited from earlier work
Cox-2 gene expression in Caco-2 cells [3],Compound,growth of human tumor cells [1],growth of normal counterparts [2],differential growth inhibition of W138 versus W138VA cells [4],reducing autophosphorylation of EGF and PDGF receptors [5],inhibiting the growth of human A431 carcinoma cells [6],apoptosis in human lymphoid leukemia cells and human stomach tumor cells [7]
failed to affect Cox-2 gene expression,"O=C(O[C@@H]1Cc2c(O)cc(O)cc2O[C@@H]1c1cc(O)c(=O)c2c(O)c(O)cc([C@H]3Oc4cc(O)cc(O)c4C[C@H]3OC(=O)c3cc(O)c(O)c(O)c3)c2c1)c1cc(O)c(O)c(O)c1 [TF-3, theaflavin-3,3′-digallate]",–,–,did not exhibit this differential growth inhibition,as potent as EGCG,as potent as EGCG,can induce apoptosis
failed to affect Cox-2 gene expression,"O=c1c(O)cc([C@H]2Oc3cc(O)cc(O)c3C[C@H]2O)cc2c([C@H]3Oc4cc(O)cc(O)c4C[C@H]3O)cc(O)c(O)c12 [TF-1, theaflavin]",–,–,did not exhibit this differential growth inhibition,–,–,can induce apoptosis

Compound,Cox-2 gene expression in Caco-2 cells [3],growth of human tumor cells [1],growth of normal counterparts [2],differential growth inhibition of W138 versus W138VA cells [4],reducing autophosphorylation of EGF and PDGF receptors [5],inhibiting the growth of human A431 carcinoma cells [6],apoptosis in human lymphoid leukemia cells and human stomach tumor cells [7]
(−)epigallocatechin gallate [EGCG],suppressed Cox-2 gene expression it was not as potent as TF-2,inhibits growth,little or no inhibitory effect,–,–,–,–
